Results on eight molecules are retold here after ChEMBL document CHEMBL1201862, “PubChem BioAssay data set” (2004).

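Grown in 96-well plates, cells were treated for 48 hours with each compound at five concentrations. Insufficient inhibition: endpoint recorded as highest concentration tested. GI50: concentration for 50% inhibition of growth.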 Active and inactive are the calls of the source. Rule as the data show it: active = GI50 up to about 1.1 µM and inactive = higher.

Test systems include SNB-75; SK-MEL-2; OVCAR-4; K562; NCI-H460; MCF7; MOLT-4; IGROV-1; COLO 205; RXF 393; U-251; OVCAR-3; RPMI-8226; Malme-3M; HOP-92; SNB-19; SN12C; HT-29; OVCAR-5; SK-OV-3.
Assay in all cases: NCI anticancer screen, dose series, 48 h

Turning to `COc1ccc(OC)c(CC2CCc3nc(N)nc(N)c3C2)c1` (centres undefined), the GI50 is 0.828 µM (active) in the assay on SNB-75; 23.6 µM (inactive) with SK-MEL-2; 28.8 µM (inactive) in the assay on OVCAR-4; > 100 µM (inactive) in the assay with K562; < 0.01 µM (active) with NCI-H460; 0.509 µM (active) in the assay on MCF7. The GI50 in the assay with MOLT-4 was 1.52 µM (inactive); in the assay with IGROV-1, < 0.0453 µM (active); in the assay on COLO 205 it was 10.2 µM (inactive); with RXF 393 it was < 0.01 µM (active); in the assay with U-251, > 49.3 µM (inactive); in the assay with OVCAR-3, 15 µM (inactive). In addition, the GI50 with RPMI-8226 was 18.2 µM (inactive); with Malme-3M, 0.0334 µM (active); in the assay on HOP-92 it was 21.9 µM (inactive); in the assay on SNB-19, 1.21 µM (inactive); with SN12C it was 14.5 µM (inactive); with HT-29 it was 6.68 µM (inactive). Also, the GI50 in the assay with OVCAR-5 was 0.51 µM (active).

On to `Cc1ccc2[nH]c3c(c2c1)C1CCC(C(C)(C)C)CC1C1C(=O)N(c2ccc4c(c2)OCO4)C(=O)C31` (centres undefined), for which the GI50 is 2.58 µM (inactive) in the assay on SK-OV-3; 7.18 µM (inactive) in the assay with SK-MEL-2; 1.85 µM (inactive) in the assay on OVCAR-4; 3.01 µM (inactive) with K562; 1.78 µM (inactive) with NCI-H460; 3.24 µM (inactive) in the assay on MCF7. Moreover, the GI50 is 1.81 µM (inactive) in the assay on MOLT-4; 2.45 µM (inactive) with IGROV-1; 3.31 µM (inactive) in the assay on COLO 205; 2.26 µM (inactive) with RXF 393; 2.1 µM (inactive) with U-251; 1.52 µM (inactive) in the assay with OVCAR-3. For the same molecule, the GI50 was 4.3 µM (inactive) in the assay on RPMI-8226; 2.23 µM (inactive) with Malme-3M; 2.24 µM (inactive) with HOP-92; 2.64 µM (inactive) with SNB-19; 2.24 µM (inactive) with SN12C; 4.51 µM (inactive) in the assay on HT-29. Besides, the GI50 in the assay on OVCAR-5 was 3.61 µM (inactive).

`CCN1CCCn2c(=O)[nH]c3cc(Br)cc1c32`: the GI50 was 25.2 µM (inactive) with SK-OV-3; 16.7 µM (inactive) in the assay on SNB-75; > 100 µM (inactive) with SK-MEL-2; > 100 µM (inactive) in the assay with OVCAR-4; > 100 µM (inactive) in the assay with K562; > 100 µM (inactive) with NCI-H460. The GI50 in the assay with MCF7 is > 100 µM (inactive); with MOLT-4 it was 60.8 µM (inactive); in the assay with IGROV-1, > 100 µM (inactive); in the assay on COLO 205 it was > 100 µM (inactive); in the assay with RXF 393, 15.2 µM (inactive); in the assay on U-251, 41.3 µM (inactive). Further, the GI50 was > 100 µM (inactive) in the assay with OVCAR-3; > 100 µM (inactive) in the assay with RPMI-8226; > 100 µM (inactive) with Malme-3M; 89.1 µM (inactive) with SNB-19; > 100 µM (inactive) with SN12C; > 100 µM (inactive) with HT-29. For the same molecule, the GI50 with OVCAR-5 is > 100 µM (inactive).

As to `Cc1cc(S(=O)(=O)Nc2nc(N)n(C)n2)c(S)cc1Cl`, the GI50 in the assay with SK-OV-3, with SNB-75, with SK-MEL-2, in the assay with OVCAR-4, with K562 and in the assay with NCI-H460 was > 10 µM (inactive) each time. For the same molecule, the GI50 in the assay with MCF7, with MOLT-4, in the assay on IGROV-1, in the assay on COLO 205, in the assay on RXF 393 and in the assay with U-251 was > 10 µM (inactive) each time. Further, the GI50 with OVCAR-3, with RPMI-8226, with Malme-3M, with SNB-19, with SN12C and in the assay with HT-29 was > 10 µM (inactive) in each case. Moreover, the GI50 with OVCAR-5 is > 10 µM (inactive).

On to `CC(=O)OCC12C(OC(C)=O)C[C@@H](C)C3(CC(c4ccoc4)OC3=O)C1CCC(O)C21CO1` (some centres undefined), for which the GI50 in the assay with SNB-75 is > 100 µM (inactive); in the assay on SK-MEL-2, > 100 µM (inactive); in the assay with OVCAR-4, > 100 µM (inactive); in the assay with K562 it was > 100 µM (inactive); in the assay with NCI-H460 it was > 10 µM (inactive); in the assay on MCF7, > 100 µM (inactive). The GI50 in the assay on MOLT-4, in the assay with IGROV-1, in the assay with COLO 205, in the assay on RXF 393, in the assay with U-251 and in the assay with OVCAR-3 was > 100 µM (inactive) throughout. Further, the GI50 in the assay on RPMI-8226, in the assay on Malme-3M, in the assay on HOP-92, in the assay with SNB-19, in the assay with SN12C and in the assay on HT-29 was > 100 µM (inactive) in each case. For the same molecule, the GI50 in the assay with OVCAR-5 is > 100 µM (inactive).

As to `N#CC1=C(N2CCOCC2)CCC1`, the GI50 in the assay with SK-OV-3, with SNB-75, in the assay with SK-MEL-2, in the assay on OVCAR-4, in the assay on K562 and in the assay on MCF7 was > 100 µM (inactive) in each case. The GI50 with MOLT-4, in the assay with IGROV-1, in the assay on COLO 205, in the assay with RXF 393, with U-251 and with OVCAR-3 was > 100 µM (inactive) throughout. Further, the GI50 in the assay with RPMI-8226, with Malme-3M, in the assay on SNB-19, with SN12C, with HT-29 and in the assay on OVCAR-5 was > 100 µM (inactive) each time.

Consider `COCn1cc(C2=C(C)C(=O)C(C)=C(C)C2=O)cn1`, for which the GI50 in the assay on SNB-75 is 11.4 µM (inactive); with SK-MEL-2, > 100 µM (inactive); in the assay with OVCAR-4, 17.7 µM (inactive); in the assay with K562, 18.9 µM (inactive); in the assay with NCI-H460 it was > 100 µM (inactive); in the assay on MCF7 it was > 100 µM (inactive). The GI50 in the assay with MOLT-4 is 14.9 µM (inactive); in the assay with IGROV-1 it was > 100 µM (inactive); in the assay on COLO 205, > 100 µM (inactive); in the assay with RXF 393, > 100 µM (inactive); in the assay with OVCAR-3 it was 19.5 µM (inactive); in the assay with RPMI-8226, 27.9 µM (inactive). Further, the GI50 is 99.5 µM (inactive) with Malme-3M; 12.7 µM (inactive) with HOP-92; > 100 µM (inactive) with SNB-19; > 100 µM (inactive) in the assay with SN12C; > 100 µM (inactive) in the assay on HT-29; > 100 µM (inactive) with OVCAR-5.

Turning to `Cc1nn(C(=O)c2ccncc2)c2c1C(c1ccc(Cl)cc1)SC(=N)N2` (centres undefined), the GI50 with SNB-75, in the assay with SK-MEL-2, with OVCAR-4, in the assay with K562, in the assay on NCI-H460 and in the assay with MCF7 was > 10 µM (inactive) in each case. Also, the GI50 with MOLT-4, in the assay with IGROV-1, in the assay with COLO 205, in the assay on RXF 393, with OVCAR-3 and with RPMI-8226 was > 10 µM (inactive) throughout. Further, the GI50 in the assay on Malme-3M, in the assay on HOP-92, with SNB-19, in the assay with SN12C, in the assay with HT-29 and in the assay with OVCAR-5 was > 10 µM (inactive) in each case.
